# Measured values as given in patent US20030144234A1, “Methods for the treatment of chronic pain and compositions therefor” (priority 2001, published 2003).
# Starred links: 1 amine or outer side, 2 acyl side, 3 side chain; linkers in the order of their positions; H or OH if unused. Non-standard residues stand in square brackets, D forms with d. Residues, ends and D or L forms follow the SMILES beside them. *: point of attachment. hPhe = N[C@@H](CCc1ccccc1)C(=O)O; Morpholide = C1CN(*)CCO1; CO = O=C([*:1])[*:2]; CH2F = FC*
# Key:
# [1] = tested on: CCI model of chronic neuropathic pain; test: Mechanical hyperalgesia in the CCI model, twice daily oral dosing throughout development of hyperalgesia; format: in vivo, Wistar rats
# Source text: In the Chronic Constriction Injury (CCl) model (Bennett, G. J. and Xie, Y. K. Pain (1988) 33: 87-107) rats are anaesthetised and a small incision is made mid-way up one thigh (usually the left) to expose the sciatic nerve. The nerve is cleared of surrounding connective tissue and four ligatures of 4/0 chromic gut are tied loosely around the nerve with approximately 1 mm between each, so that the ligatures just barely constrict the surface of the nerve. The wound is closed with sutures and clips as described above. In sham animals the sciatic nerve is exposed but not ligated and the wound closed as in nonsham animals. In all chronic pain models (inflammatory and neuropathic) mechanical hyperalgesia is assessed by measuring paw withdrawal thresholds of both hindpaws to an increasing pressure stimulus using an Analgesymeter (Ugo-Basile, Milan). Mechanical allodynia is assessed by measuring withdrawal thresholds to non-noxious mechanical stimuli applied with von Frey hairs to the plantar surface of both hindpaws. Thermal hyperalgesia is assessed by measuring withdrawal latencies to a noxious thermal stimulus applied to the underside of each hindpaw. With all models, mechanical hyperalgesia and allodynia and thermal hyperalgesia develop within 1-3 days following surgery and persist for at least 50 days. For the assays described herein, drugs may be applied before and after surgery to assess their effect on the development of hyperalgesia, particularly approximately 14 days following surgery, to determine their ability to reverse established hyperalgesia. In the experiments disclosed herein, Wistar rats (male) are employed in the pain models described above. Rats weigh approximately 120-140 grams at the time of surgery. All surgery is performed under enflurane/O2 inhalation anaesthesia. In all cases the wound is closed after the procedure and the animal allowed to recover. In all pain models employed, after a few days in all but the sham operated animals, a marked mechanical and thermal hyperalgesia and allodynia develops in which there is a lowering of pain threshold and an enhanced reflex withdrawal response of the hind-paw to touch, pressure or thermal stimuli. […] In the majority of animals the toes of the affected hind paw are held together and the foot turned slightly to one side; in some rats the toes are also curled under. The gait of the ligated rats varies, but limping is uncommon. […] The rats tend to be very sensitive to touch and may vocalise. Otherwise the general health an condition of the rats is good. Data disclosed herein indicate that compound B can reverse the mechanical hyperalgesia induced in the CCl model of neuropathic pain in a dose dependent manner with a D50 in the range 30-100 mg/kg, with up to 70% reversal at 100 mg/kg at 1 hour post dosing. […] In the twice daily study, paw withdrawal thresholds were measured prior to surgery and then daily 3 hours following the second oral dosing with compound B. The last dose was given on day 13. Each time point in Table 3 represents data from 6 animals per group. Vehicle control: PEG/methyl cellulose (0.5%)+Tween 80 (0.25%)(20:80), 1 ml p.o.
# [2] = tested on: Seltzer model of chronic neuropathic pain; test: Established mechanical hyperalgesia in the Seltzer model of chronic neuropathic pain, single oral dose; format: in vivo, Wistar rats; design: effect on established mechanical hyperalgesia: unit not given here
# [3] = tested on: CCI model of chronic neuropathic pain; test: Established mechanical hyperalgesia in the CCI model of chronic neuropathic pain, single oral dose (paw withdrawal threshold); format: in vivo, Wistar rats; settings: for % Reversal of Predose Hyperalgesia: CCI model day 14
# Source text: In the Chronic Constriction Injury (CCl) model (Bennett, G. J. and Xie, Y. K. Pain (1988) 33: 87-107) rats are anaesthetised and a small incision is made mid-way up one thigh (usually the left) to expose the sciatic nerve. The nerve is cleared of surrounding connective tissue and four ligatures of 4/0 chromic gut are tied loosely around the nerve with approximately 1 mm between each, so that the ligatures just barely constrict the surface of the nerve. The wound is closed with sutures and clips as described above. In sham animals the sciatic nerve is exposed but not ligated and the wound closed as in nonsham animals. In all chronic pain models (inflammatory and neuropathic) mechanical hyperalgesia is assessed by measuring paw withdrawal thresholds of both hindpaws to an increasing pressure stimulus using an Analgesymeter (Ugo-Basile, Milan). Mechanical allodynia is assessed by measuring withdrawal thresholds to non-noxious mechanical stimuli applied with von Frey hairs to the plantar surface of both hindpaws. Thermal hyperalgesia is assessed by measuring withdrawal latencies to a noxious thermal stimulus applied to the underside of each hindpaw. With all models, mechanical hyperalgesia and allodynia and thermal hyperalgesia develop within 1-3 days following surgery and persist for at least 50 days. For the assays described herein, drugs may be applied before and after surgery to assess their effect on the development of hyperalgesia, particularly approximately 14 days following surgery, to determine their ability to reverse established hyperalgesia. The percentage reversal of hyperalgesia is calculated as follows: [formula] In the experiments disclosed herein, Wistar rats (male) are employed in the pain models described above. Rats weigh approximately 120-140 grams at the time of surgery. All surgery is performed under enflurane/O2 inhalation anaesthesia. In all cases the wound is closed after the procedure and the animal allowed to recover. In all pain models employed, after a few days in all but the sham operated animals, a marked mechanical and thermal hyperalgesia and allodynia develops in which there is a lowering of pain threshold and an enhanced reflex withdrawal response of the hind-paw to touch, pressure or thermal stimuli. […] In the majority of animals the toes of the affected hind paw are held together and the foot turned slightly to one side; in some rats the toes are also curled under. The gait of the ligated rats varies, but limping is uncommon. […] The rats tend to be very sensitive to touch and may vocalise. Otherwise the general health an condition of the rats is good. Rats are subjected to the surgical procedures according to the CCl chronic pain model described above. Paw withdrawal thresholds are measured prior to surgery, 14 days later when hyperalgesia is established and then at 1, 3 and 6 hours following a single oral gavage dose of compound B. Results are provided in Table 2, below. Each time point represents data from 6 animals per group. Vehicle control: PEG/methyl cellulose (0.5%)+Tween 80 (0.25%)(20:80), 1 ml p.o.
# cathepsin S [4] = target: T1, cathepsin S (Homo sapiens, UniProt P25774); settings: per U.S. Pat. No. 4,518,528; cited from earlier work
# [5] = tested on: FCA-induced model of chronic inflammatory pain; test: Mechanical hyperalgesia in the FCA-induced model of chronic inflammatory pain; format: in vivo, rats; settings: 100 mg/kg p.o., 24 hours after FCA induction, data not shown
# Protocol: The Complete Freund's Adjuvant-induced mechanical hyperalgesia may be used as a model of chronic inflammatory pain (Stein, C. et al. Pharmacol. Biochem. Behav. (1988) 31:445-451). In this model, typically a male Sprague-Dawley orWistar rat (200-250 g) receives an intraplantar injection of 25 μl complete Freund's adjuvant into one hind paw. A marked inflammation occurs in this hind paw. Drugs are generally administered for evaluation of efficacy, 24 hours after the inflammatory insult, when mechanical hyperalgesia is considered fully established. In all chronic pain models (inflammatory and neuropathic) mechanical hyperalgesia is assessed by measuring paw withdrawal thresholds of both hindpaws to an increasing pressure stimulus using an Analgesymeter (Ugo-Basile, Milan). Mechanical allodynia is assessed by measuring withdrawal thresholds to non-noxious mechanical stimuli applied with von Frey hairs to the plantar surface of both hindpaws. Thermal hyperalgesia is assessed by measuring withdrawal latencies to a noxious thermal stimulus applied to the underside of each hindpaw. With all models, mechanical hyperalgesia and allodynia and thermal hyperalgesia develop within 1-3 days following surgery and persist for at least 50 days. […] The percentage reversal of hyperalgesia is calculated as follows: [formula] […]
# cathepsin S [6] = target: T1, cathepsin S; test: Cathepsin S inhibitory activity (stated in words); format: biochemical
# cathepsin K = target: T2, cathepsin K (Homo sapiens, UniProt P43235); test: Cathepsin K inhibitory activity (stated in words); format: biochemical
# T2 sequence (P43235 115-329): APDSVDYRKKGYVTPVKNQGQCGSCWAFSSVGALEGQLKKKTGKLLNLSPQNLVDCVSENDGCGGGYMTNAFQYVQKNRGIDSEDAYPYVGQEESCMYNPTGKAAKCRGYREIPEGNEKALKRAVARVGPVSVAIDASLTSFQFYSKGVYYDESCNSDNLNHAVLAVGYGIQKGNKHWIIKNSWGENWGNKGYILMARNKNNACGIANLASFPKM
# T1 sequence (P25774 115-331): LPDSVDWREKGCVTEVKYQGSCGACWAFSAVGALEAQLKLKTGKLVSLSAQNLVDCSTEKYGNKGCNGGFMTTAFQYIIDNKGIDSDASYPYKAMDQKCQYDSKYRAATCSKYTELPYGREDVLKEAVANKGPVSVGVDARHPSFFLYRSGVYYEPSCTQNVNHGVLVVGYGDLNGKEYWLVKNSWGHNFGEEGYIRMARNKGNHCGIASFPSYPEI
structure (smiles),measurement,setting,value
"O=C(CF)[C@H](CCc1ccccc1)NC(=O)[C@H](Cc1ccccc1)NC(=O)N1CCOCC1 [Compound B, 3-[(4-morpholinylcarbonyl)-phenylalanylamido]-1-fluoro-5-phenyl-2-pentanone] ({Morpholide-CO}-Phe-[hPhe]-CH2F)",Mean Paw pressure withdrawal threshold,"[1]; 30 mg/kg orally twice daily, day 1 post surgery, 3 hours after second dose",100.00 g
same,Mean Paw pressure withdrawal threshold,"[1]; 30 mg/kg orally twice daily, day 2 post surgery, 3 hours after second dose",70.83 g
same,Mean Paw pressure withdrawal threshold,"[1]; 30 mg/kg orally twice daily, day 3 post surgery, 3 hours after second dose",79.17 g
same,Mean Paw pressure withdrawal threshold,"[1]; 30 mg/kg orally twice daily, day 4 post surgery, 3 hours after second dose",80.00 g
same,Mean Paw pressure withdrawal threshold,"[1]; 30 mg/kg orally twice daily, day 6 post surgery, 3 hours after second dose",80.80 g
same,Mean Paw pressure withdrawal threshold,"[1]; 30 mg/kg orally twice daily, day 8 post surgery, 3 hours after second dose",80.00 g
same,Mean Paw pressure withdrawal threshold,"[1]; 30 mg/kg orally twice daily, day 10 post surgery, 3 hours after second dose",77.50 g
same,Mean Paw pressure withdrawal threshold,"[1]; 30 mg/kg orally twice daily, day 13 post surgery (last dose), 3 hours after second dose",79.17 g
same,reversing mechanical hyperalgesia (in words),"[1]; CCI model, 30 mg/kg orally, twice daily throughout development of hyperalgesia",acutely effective
same,Mean Paw pressure withdrawal threshold,"[1]; day 15 post surgery, after end of 30 mg/kg twice daily treatment (last dose day 13)",60.83 g
same,effect on established mechanical hyperalgesia,"[2]; Cmpd B 30 mg/kg single oral dose, 1 hr",33.47
same,effect on established mechanical hyperalgesia,"[2]; Cmpd B 30 mg/kg single oral dose, 3 hrs",41.57
same,effect on established mechanical hyperalgesia,"[2]; Cmpd B 30 mg/kg single oral dose, 6 hrs",11.97
same,% Reversal of Predose Hyperalgesia,"[3]; 10 mg/kg single oral dose, 1 hr post dose",26.16%
same,% Reversal of Predose Hyperalgesia,"[3]; 10 mg/kg single oral dose, 3 hrs post dose",38.19%
same,% Reversal of Predose Hyperalgesia,"[3]; 10 mg/kg single oral dose, 6 hrs post dose",18.29%
same,% Reversal of Predose Hyperalgesia,"[3]; 30 mg/kg single oral dose, 1 hr post dose",40.97%
same,% Reversal of Predose Hyperalgesia,"[3]; 30 mg/kg single oral dose, 3 hrs post dose",38.89%
same,% Reversal of Predose Hyperalgesia,"[3]; 30 mg/kg single oral dose, 6 hrs post dose",13.89%
same,% Reversal of Predose Hyperalgesia,"[3]; 100 mg/kg single oral dose, 1 hr post dose",76.49%
same,% Reversal of Predose Hyperalgesia,"[3]; 100 mg/kg single oral dose, 3 hrs post dose",55.06%
same,% Reversal of Predose Hyperalgesia,"[3]; 100 mg/kg single oral dose, 6 hrs post dose",29.76%
same,reversal of mechanical hyperalgesia,"[3]; CCI model, 100 mg/kg, 1 hour post dosing",up to 70%
same,D50 for reversal of mechanical hyperalgesia,"[3]; CCI model, single oral dose",30 to 100 mg/kg
same,inhibition of cathepsin S in vitro (in words),cathepsin S [4],known to inhibit
same,maximal reversal of mechanical hyperalgesia,[5],46%
"CC(C)(C)Cn1c(Cc2cccs2)cc2cnc(C#N)nc21 [Compound A, 7-(2,2-Dimethyl-propyl)-6-thiophen-2-ylmethyl-7.H.-pyrrolo[2,3-.d.]pyrimidine-2-carbonitrile]",effect on established mechanical hyperalgesia,"[2]; Cmpd A 3 mg/kg single oral dose, 1 hr",1.32
same,effect on established mechanical hyperalgesia,"[2]; Cmpd A 3 mg/kg single oral dose, 3 hrs",3.64
same,effect on established mechanical hyperalgesia,"[2]; Cmpd A 3 mg/kg single oral dose, 6 hrs",−1.06
same,effect on established mechanical hyperalgesia,"[2]; Cmpd A 10 mg/kg single oral dose, 1 hr",8.63
same,effect on established mechanical hyperalgesia,"[2]; Cmpd A 10 mg/kg single oral dose, 3 hrs",52.94
same,effect on established mechanical hyperalgesia,"[2]; Cmpd A 10 mg/kg single oral dose, 6 hrs",17.63
same,effect on established mechanical hyperalgesia,"[2]; Cmpd A 30 mg/kg single oral dose, 1 hr",31.15
same,effect on established mechanical hyperalgesia,"[2]; Cmpd A 30 mg/kg single oral dose, 3 hrs",68.32
same,effect on established mechanical hyperalgesia,"[2]; Cmpd A 30 mg/kg single oral dose, 6 hrs",23.05
same,D50 for reversal of hyperalgesia,"[2]; Seltzer model, single oral dose",3 to 10 mg/kg
same,cathepsin S inhibitory activity (in words),cathepsin S [6],mixed cathepsin S/K inhibitory activity
same,cathepsin K inhibitory activity (in words),cathepsin K,mixed cathepsin S/K inhibitory activity
